Assay results reported in ChEMBL document CHEMBL1201862, “PubChem BioAssay data set” (2004).
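Each compound was tested at five concentrations against cells in 96-well plates for 48 hours. GI50: concentration for 50% inhibition of growth.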 Activity calls are given as the source filed them. Rule as the data show it: active = GI50 up to about 1.1 µM and inactive = higher.

Tests used:
Experiment in all cases: NCI anticancer screen, dose series, 48 h
[1] = tested on: A498
[2] = tested on: A549
[3] = tested on: CAKI-1
[4] = tested on: CCRF-CEM
[5] = tested on: COLO 205
[6] = tested on: DLD-1
[7] = tested on: DMS-114
[8] = tested on: DMS-273
[9] = tested on: EKVX
[10] = tested on: HCC 2998
[11] = tested on: HCT-116
[12] = tested on: HCT-15
[13] = tested on: HL-60
[14] = tested on: HOP-18
[15] = tested on: HOP-62
[16] = tested on: HOP-92
[17] = tested on: HT-29
[18] = tested on: IGROV-1
[19] = tested on: K562
[20] = tested on: KM12
[21] = tested on: LOX IMVI
[22] = tested on: M19-MEL
[23] = tested on: MCF7
[24] = tested on: MOLT-4
[25] = tested on: NCI-H226
[26] = tested on: NCI-H23
[27] = tested on: NCI-H460
[28] = tested on: NCI/ADR-RES
[29] = tested on: OVCAR-3
[30] = tested on: OVCAR-4
[31] = tested on: OVCAR-5
[32] = tested on: OVCAR-8
[33] = tested on: RPMI-8226
[34] = tested on: SF-268
[35] = tested on: SF-295
[36] = tested on: SF-539
[37] = tested on: SK-MEL-28
[38] = tested on: SK-MEL-2
[39] = tested on: SK-MEL-5
[40] = tested on: SK-OV-3
[41] = tested on: SN12C
[42] = tested on: SNB-19
[43] = tested on: SNB-75
[44] = tested on: SW-620
[45] = tested on: U-251
[46] = tested on: UACC-257
[47] = tested on: UACC-62
[48] = tested on: UO-31
[49] = tested on: XF498
[50] = tested on: 786-0
[51] = tested on: ACHN
[52] = tested on: LXFL 529
[53] = tested on: M14
[54] = tested on: Malme-3M
[55] = tested on: NCI-H522
[56] = tested on: SNB-78
[57] = tested on: SR
[58] = tested on: TK-10

Compound: C=C1CCCC(C)(C)[C@@H]1CC/C(C)=C/Cn1c2cccc(=O)c-2nc2ccccc21
- GI50 [1]: 3.52 µM (inactive)
- GI50 [2]: 1.72 µM (inactive)
- GI50 [3]: 1.77 µM (inactive)
- GI50 [4]: 0.406 µM (active)
- GI50 [5]: 1.96 µM (inactive)
- GI50 [6]: 1.26 µM (inactive)
- GI50 [7]: 1.09 µM (active)
- GI50 [8]: 1.48 µM (inactive)
- GI50 [9]: 4.4 µM (inactive)
- GI50 [10]: 2.06 µM (inactive)
- GI50 [11]: 1.35 µM (inactive)
- GI50 [12]: 1.18 µM
- GI50 [13]: 0.127 µM (active)
- GI50 [14]: 7.1 µM (inactive)
- GI50 [15]: 3.48 µM (inactive)
- GI50 [16]: 1.94 µM (inactive)
- GI50 [17]: 1.77 µM (inactive)
- GI50 [18]: 1.71 µM (inactive)
- GI50 [19]: 1.07 µM (active)
- GI50 [20]: 2.81 µM (inactive)
- GI50 [21]: 1.15 µM (inactive)
- GI50 [22]: 1.26 µM (inactive)
- GI50 [23]: 2.55 µM (inactive)
- GI50 [24]: 0.41 µM (active)
- GI50 [25]: 3.99 µM (inactive)
- GI50 [26]: 1.52 µM (inactive)
- GI50 [27]: 1.21 µM (inactive)
- GI50 [28]: 0.656 µM (active)
- GI50 [29]: 3.18 µM (inactive)
- GI50 [30]: 1.81 µM (inactive)
- GI50 [31]: 3.25 µM (inactive)
- GI50 [32]: 1.55 µM (inactive)
- GI50 [33]: 2.04 µM (inactive)
- GI50 [34]: 1.39 µM (inactive)
- GI50 [35]: 1.45 µM (inactive)
- GI50 [36]: 1.66 µM (inactive)
- GI50 [37]: 4.63 µM (inactive)
- GI50 [38]: 2.37 µM (inactive)
- GI50 [39]: 3.95 µM (inactive)
- GI50 [40]: 4.15 µM (inactive)
- GI50 [41]: 1.59 µM (inactive)
- GI50 [42]: 4.51 µM (inactive)
- GI50 [43]: 1.41 µM (inactive)
- GI50 [44]: 1.61 µM (inactive)
- GI50 [45]: 1.53 µM (inactive)
- GI50 [46]: 1.96 µM (inactive)
- GI50 [47]: 0.771 µM (active)
- GI50 [48]: 2.77 µM (inactive)
- GI50 [49]: 2.29 µM (inactive)

Compound: O=C(Cc1ccccc1)N/N=C(/c1nc2ccc([N+](=O)[O-])cc2nc1O)C(O)c1ccco1 (configuration not stated)
- GI50 [50]: > 100 µM (inactive)
- GI50 [1]: > 100 µM (inactive)
- GI50 [2]: > 100 µM (inactive)
- GI50 [51]: 57.4 µM (inactive)
- GI50 [3]: 60.8 µM (inactive)
- GI50 [4]: 43.7 µM (inactive)
- GI50 [5]: > 100 µM (inactive)
- GI50 [6]: > 100 µM (inactive)
- GI50 [7]: 46.8 µM (inactive)
- GI50 [9]: > 100 µM (inactive)
- GI50 [10]: > 100 µM (inactive)
- GI50 [11]: > 100 µM (inactive)
- GI50 [12]: 67.8 µM
- GI50 [13]: 31.8 µM (inactive)
- GI50 [14]: > 100 µM (inactive)
- GI50 [15]: > 100 µM (inactive)
- GI50 [16]: > 100 µM (inactive)
- GI50 [17]: > 100 µM (inactive)
- GI50 [18]: > 100 µM (inactive)
- GI50 [19]: 44.4 µM (inactive)
- GI50 [20]: > 100 µM (inactive)
- GI50 [21]: > 100 µM (inactive)
- GI50 [52]: 87.9 µM (inactive)
- GI50 [53]: > 100 µM (inactive)
- GI50 [22]: > 100 µM (inactive)
- GI50 [24]: > 100 µM (inactive)
- GI50 [54]: > 100 µM (inactive)
- GI50 [25]: > 100 µM (inactive)
- GI50 [26]: > 100 µM (inactive)
- GI50 [27]: > 100 µM (inactive)
- GI50 [55]: 12.6 µM (inactive)
- GI50 [30]: > 100 µM (inactive)
- GI50 [31]: > 100 µM (inactive)
- GI50 [32]: > 100 µM (inactive)
- GI50 [33]: > 100 µM (inactive)
- GI50 [34]: > 100 µM (inactive)
- GI50 [35]: > 100 µM (inactive)
- GI50 [36]: > 100 µM (inactive)
- GI50 [37]: > 100 µM (inactive)
- GI50 [38]: > 100 µM (inactive)
- GI50 [39]: 66.4 µM (inactive)
- GI50 [40]: > 100 µM (inactive)
- GI50 [41]: > 100 µM (inactive)
- GI50 [43]: > 100 µM (inactive)
- GI50 [56]: > 100 µM (inactive)
- GI50 [57]: > 100 µM (inactive)
- GI50 [44]: > 100 µM (inactive)
- GI50 [58]: > 100 µM (inactive)
- GI50 [45]: > 100 µM (inactive)
- GI50 [46]: > 100 µM (inactive)
- GI50 [47]: > 100 µM (inactive)
- GI50 [48]: > 100 µM (inactive)
- GI50 [49]: > 100 µM (inactive)
